Data as given in patent US20110146678A1, “PROCESS FOR IMPROVING CRYSTALLINITY” (priority 2008, published 2011).
Counter-ions that a name gives are not always drawn.

How the values were obtained:
Type in all cases: physicochemical
[1] = Respirable fraction / FPF by Next Generation Impactor (general summary); conditions: particles of the present invention vs prior art
Description: The particle size distribution of the aerosol formulations according to the invention may be measured by conventional techniques, for example by using a Next Generation Impactor (NGI) with pre-separator for example by cascade impaction or by the “Twin Impinger” analytical process. As used herein reference to the “Twin Impinger” assay means “Determination of the deposition of the emitted dose in pressurised inhalations using apparatus A” as defined in British Pharmacopoeia 1988, pages A204-207, Appendix XVII C. Such methods involve filling the pre-separator with HPLC mobile phase and the cups of the NGI cups were coated with 1% v/v silicone oil in hexane to eliminate particle bounce. […] The mass of drug deposited on each part of the NGI can then be determined by HPLC. The FPD determined represents the mass of drug collected on stages 3-8 of the NGI. The FPF emitted dose is also determined. The aerosolisation efficiency as determined by percentage fine particle fraction (% FPF) or respirable fraction is also assessed.
Such techniques enable the “respirable fraction” of the aerosol formulations to be calculated. As used herein reference to “respirable fraction” means the amount of active ingredient collected in the lower chamber in the NGI per actuation expressed as a percentage of the total amount of active ingredient delivered per actuation using the method described above. […]

[2] = pMDI formulation, particle fraction distribution on NGI stages; conditions: stage 5 cut-off 1.36 μm
Protocol: Both samples were produced in a similar manner to sample 2 of Example 2. Sample 1 was prepared from atomization of a 3% solution of fluticasone propionate in 20% dichloromethane in methanol (3 g in 100 ml) and Sample 5 was prepared from atomization of 3% solution in acetone (3 g in 100 ml). […] The FPF values were 11.80% and 13.80% on stage 5 for samples 5 and 1 respectively compared with 6.20% for micronized material.

[3] = Aerosolisation efficiency of binary DPI formulations (0.4% w/w FP in lactose), NGI via Rotahaler; conditions: optimal particles
Protocol: The aerosolization efficiency of samples 2, 3 and 4 of engineered FP were evaluated using binary formulations containing 0.4% w/w FP.
Each binary formulation contained 0.016 g FP and 3.984 g lactose (ML001, DMV-Fonterra, Vehgel, Netherlands) and was prepared by geometric mixing. Following this, the blend was subsequently prepared using a Turbula T2F (Willy A Bachofen A G, Basel, Switzerland) at 46 rpm for 45 minutes.
Following content uniformity testing, 12.5±1 mg of each blend was loaded into size 3 hydroxypropylmethyl cellulose capsules (HPMC, Shionogi Qualicaps S A, Basingstoke, UK). The capsules were stored at 44% RH for 24 h prior to in vitro performance testing.
Testing was performed using a Next Generation Impactor (NGI) with pre-separator, which was connected to a vacuum pump (GE Motors). Prior to testing, the pre-separator was filled with 15 ml of mobile phase and the cups of the NGI cups were coated with 1% v/v silicone oil in hexane to eliminate particle bounce.
For each experiment, four individual capsules of the same formulation were discharged into the NGI at 60 Lpm for 4 s via a Rotahaler (GSK, Ware, UK) DPI device. Additionally, blisters from a Flixotide Diskus (GSK, Ware, UK) were emptied and loaded into size 3 HPMS capsules and discharged into a NGI at 60 Lpm1 for 4 s via a Rotahaler. Following aerosolization, the NGI apparatus was dismantled and the inhaler, capsules and each part of the NGI was washed down into known volumes of HPLC mobile phase.
The mass of drug deposited on each part of the NGI was determined by HPLC. This protocol was repeated three times for each blend, following which, the mass median aerodynamic diameter (MMAD), geometric standard deviation (GSD), fine particle dose (FPD) and fine particle fraction of the emitted dose (FPFED) were determined. The FPD represented the mass of drug that was collected on stages 3-8 of the NGI.

Compound	increase in FPF compared to the prior art [1]	FPF on stage 5 of the NGI [2] [%]	FPF greater than micronized/milled [3] [%]	FPF greater than precipitated material [3]
CC(Cc1ccc(O)cc1)NCC(O)c1cc(O)cc(O)c1 (stereo not drawn) [Fenoterol hydrobromide]	30-50%	–	–	–
CCC(=O)O[C@]1(C(=O)SCF)[C@H](C)C[C@H]2[C@@H]3C[C@H](F)C4=CC(=O)C=C[C@]4(C)[C@@]3(F)[C@@H](O)C[C@@]21C [Sample 1, fluticasone propionate]	–	13.80	–	–
CCC(=O)O[C@]1(C(=O)SCF)[C@H](C)C[C@H]2[C@@H]3C[C@H](F)C4=CC(=O)C=C[C@]4(C)[C@@]3(F)[C@@H](O)C[C@@]21C [Sample 5, fluticasone propionate]	–	11.80	–	–
CCC(=O)O[C@]1(C(=O)SCF)[C@H](C)C[C@H]2[C@@H]3C[C@H](F)C4=CC(=O)C=C[C@]4(C)[C@@]3(F)[C@@H](O)C[C@@]21C [fluticasone propionate]	50-60%	–	54	over 200%
